# Values of other authors as cited in US20210181185A1, “DENDRITIC CELL RECRUITMENT FROM BLOOD TO BRAIN IN NEURODEGENERATIVE DISEASE” (priority 2017, published 2021).
# Conditions: free DiO
smiles,measurement,value
CCCCCCCCCCCCCCCCCCN1/C(=C\C=C\c2oc3ccccc3[n+]2CCCCCCCCCCCCCCCCCC)Oc2ccccc21.[O-][Cl+3]([O-])([O-])[O-] [DiO],Clearance of free dye from blood,rapidly cleared from blood
